Data as given in EPA's ToxValDB 9.5 (doi:10.2903/j.efsa.2008.176r).
Converted amounts (≈) assume the structure as drawn.

Columns and labels:
Rattus norvegicus = conditions: oral; for LD50: acute, mortality
Colinus virginianus = conditions: oral
Apis mellifera = conditions: acute; duration: 48 hours; oral; unspecified; mortality
Canidae = conditions: chronic; duration: 1 years; oral; Dog Other; histopathology: nonneoplastic
Mus musculus = conditions: developmental; development
Daphnia magna = conditions: chronic/long-term; duration: 21 days; reproduction
Hypoaspis aculeifer = conditions: chronic/long-term
Oryctolagus sp. = conditions: developmental; development
[1] = reproduction developmental, diet

Row | Compound | LD50 (Rattus norvegicus) | LC50 (Colinus virginianus; acute, diet, mortality) | LD50 (Apis mellifera) | NOEL (Rattus norvegicus; reproduction developmental, diet, body weight) | LD50 (Colinus virginianus; acute, mortality) | LOEL (Colinus virginianus; [1]) | NOEL (Colinus virginianus; [1]) | LC50 (Tagia sp.; acute, duration: 14 days, mortality) | NOEC (Tagia sp.; chronic/long-term, duration: 8 weeks, reproduction) | NOAEL (Canidae) | LOAEL (Mus musculus) | NOEC (Daphnia magna) | LC50 (Oncorhynchus mykiss; acute, duration: 96 hours, mortality) | NOEC (Oncorhynchus mykiss; chronic/long-term, duration: 83 days, growth) | NOEC (Hypoaspis aculeifer) | NOEL (Oryctolagus sp.)
1 | NC(Cc1ncn[nH]1)C(=O)O (stereo not drawn) [1,2,4-Triazole-3-alanine] | > 5000 mg/kg-day | > 1370 mg/kg-day |  |  |  |  |  |  |  |  |  |  |  |  |  | 
2 | CC(C)(C)C(O)(CCc1ccc(Cl)cc1)Cn1cncn1 (stereo not drawn) [Tebuconazole] | 1700 mg/kg-day | > 703 mg/kg-day | > 83 µg/piece | 10 mg/kg-day | 1990 mg/kg-day | 12.4 mg/kg-day | 5.8 mg/kg-day | 1380 mg/kg | 10 mg/kg | 3 mg/kg-day | 10 mg/kg-day | 0.01 mg/L | 4.4 mg/L (≈ 14.3 µM) | 0.012 mg/L | 50 mg/kg | 10 mg/kg-day
